Earlier results, collected in patent publication US10238626B2, “Therapeutic compounds” (ARIZONA BOARD OF REGENTS ON BEHALF OF ARIZONA STATE …, priority 2017, dated 2019).

Legend:
hRXRβ = hRXRβ (Homo sapiens, UniProt P28702); details: read-out: EC50 for the hRXRβ isoform; literature (Santin et al. 2009)
hRXR [1] = details: Caco-2 cells; literature (Wagner et al. 2009)
hRXR [2] = details: Caco-2 cells; literature (Wagner et al. 2009); remark: listed apart in the source

Chain of hRXRβ (P28702 whole entry, canonical isoform): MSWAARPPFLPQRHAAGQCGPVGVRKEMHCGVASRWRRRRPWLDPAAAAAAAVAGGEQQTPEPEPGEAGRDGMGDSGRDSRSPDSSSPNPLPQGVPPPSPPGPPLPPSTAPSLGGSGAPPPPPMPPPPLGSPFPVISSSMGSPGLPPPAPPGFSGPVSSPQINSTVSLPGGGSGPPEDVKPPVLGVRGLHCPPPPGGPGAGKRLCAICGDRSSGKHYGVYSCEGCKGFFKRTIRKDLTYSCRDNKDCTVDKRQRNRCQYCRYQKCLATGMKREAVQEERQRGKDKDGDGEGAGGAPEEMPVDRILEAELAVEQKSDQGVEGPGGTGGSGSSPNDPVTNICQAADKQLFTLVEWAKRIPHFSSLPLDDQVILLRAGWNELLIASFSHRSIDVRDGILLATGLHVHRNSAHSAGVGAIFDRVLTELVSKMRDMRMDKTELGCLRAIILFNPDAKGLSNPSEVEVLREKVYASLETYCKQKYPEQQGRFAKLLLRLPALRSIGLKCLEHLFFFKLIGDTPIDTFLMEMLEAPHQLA

## Cc1cc2c(cc1-c1cc(/C=C/C(=O)O)ccc1O)C(C)(C)CCC2(C)C [CD3254]
hRXRβ
  EC50: ~10 nM

## C=C(c1ccc(C(=O)O)c(F)c1)c1cc2c(cc1C)C(C)(C)CCC2(C)C [compound 3]
hRXR [1]
  Kd: 12 nM
hRXR [2]
  EC50: 43 nM
